The target of one data set is Vps34 (Homo sapiens, UniProt Q8NEB9). The data set is described as follows: Kinase Glo Luminescent Kinase Assay (Kglo), assay C. Format: biochemical. The settings on record: read-out: Assay C VPS34 IC50. On the technique in general: Kinase-Glo reads ATP consumption through a luciferase reaction.
In another data set the target is mTOR (Homo sapiens, UniProt P42345). The experiment in a line: Lanthascreen kinase binding assay, assay G. The settings on record: read-out: Assay G mTOR IC50. A general note: In TR-FRET formats the signal depends on donor and acceptor labels being close together.
Data set [1] is described as follows: Microsomal clearance assay (M). The settings on record: intrinsic clearance in rat liver microsomes.
Method: The experiments were performed in 96-well glass plates at 37° C. on an automated Tecan EVO platform. Test compounds at a concentration of 10 mM in pure DMSO were diluted 1:1000 in water to 10 μM. […] Reactions were initiated by the addition of 150 μL of a cofactor solution containing 2 mM NADPH.
For data set [2], the target named is T1, PI 3-kinase beta (Homo sapiens, UniProt P42338). The data set is described as follows: Cellular assay I1, p-Akt (S473) in Rat-1 cells, Surefire format. The settings on record: non-asterisked data: version I1 (Surefire format), Rat-1 cells; read-out: Assay I PI3Kβ IC50. The class given is cell-based.
Data set [3] deals with T2, PI 3-kinase gamma (Homo sapiens, UniProt P48736). The data set is described as follows: TR-FRET Adapta assay, assay E. The class given is biochemical. As to conditions: read-out: Assay E PI3Kγ IC50.
Data set [4] has as its target T2, PI 3-kinase gamma. The data set is described as follows: Cellular U937 AKT assay K1 (MSD). Format: cell-based. The settings on record: U937 cells, K1 format; read-out: Assay K1 PI3Kγ IC50.
The subject of data set [5] is IL-8-induced neutrophil shape change in human whole blood. The experiment in a line: Whole blood neutrophil shape change assay (L). Format: cell-based. The settings on record: IL-8, human whole blood, read-out: Assay L WBSC IC50.
Method: Whole Blood Neutrophil Shape Change Assay (L)
IL-8 was made up to 2 μM stocks in 0.1% bovine serum albumin/PBS and stored at −80° C. On the day IL-8 was diluted in PBS (phosphate buffered saline) 10 minutes before use. IL-8 was used at final concentration of 2 nM and a concentration range from 0.003 to 200 nM for the donor dose response curve.
Assay fixative solution was prepared fresh each day from 10× concentrated CellFIX™ solution diluted 1:10 in sterile distilled water and then 1:4 with PBS. Assay fixative solution was kept on ice prior to use.
A 10× lysis buffer was prepared in advance by dissolving 20.75 g NH4Cl and 2.5 g KHCO3 in 250 ml sterile H2O. This 10× lysis buffer was filtered under sterile conditions and stored for up to two weeks at 4° C. On the day a 1× lysis solution was prepared with sterile distilled H2O and kept on ice prior to use.
The test compounds were prepared as 10 mM stock solutions in 100% DMSO and were stored at 4° C. Once in use for an assay 10 mM stock compounds were thawed and stored at RT protected from light. Compound dilutions were prepared fresh on the day. The first series of dilutions in 100% DMSO were done first thing in the morning. Only once blood had been collected and arrived in laboratory was the next set of dilutions into PBS carried out (1:10 PBS, 10% DMSO). This limited the exposure of diluted compound to plastic and made sure the exposure timing was consistent between assays.
Compound dilutions in 100% DMSO were prepared as described previously. Human whole blood was collected in K2 EDTA Vacutainers. Once blood was in the laboratory, compound dilutions into PBS were carried out as described previously and depicted in Table 1.
The outer wells of the deep well assay plate were filled with 1200 μl of sterile distilled H2O in an effort to limit edge effects (rows A1-H1, A1-A12, A12-H12).
An IL-8 dose response was determined for each blood donor examined, to monitor the donor response to IL-8. At this step in assay preparation for the IL-8 dose response samples 10 μl of PBS was added to designated wells. In addition the assay window without DMSO was also assessed each day. For such samples at this step in assay preparation 10 μl of PBS was added in the place of 10% DMSO.
Lids were placed on the 96 well plates and samples were incubated for 15 minutes at 37° C. in a water-bath.
Following the compound pre-incubation 10× final IL-8 was added to appropriate wells (10 μl of 20 nM working stock IL-8, final IL-8 concentration in blood=2 nM) and 10 μl of PBS was added to the un-stimulated controls. 10× final dose response range IL-8 was also added to designated wells (final concentration range on assay plate was 200 nM to 0.0005 nM, 1:5 serial dilution in PBS). The IL-8 and PBS were added to appropriate wells across all assay plates in the same sequence as the blood to compound addition. […] Samples were incubated for 5 minutes at 37° C. in a water-bath. Following the incubation sample plates were transferred to ice where 250 μl of chilled Assay Fixative Buffer was added promptly to all wells.
Samples were incubated on ice for 7 minutes (no mixing). […] Once added samples were mixed once and incubated on ice for 30 minutes to achieve uniform red blood cells lysis. After lysis, 200 μl of sample was transferred to a 96 well microplate on ice. […] Granulocytes were identified based on differential side scatter (SSC) and forward scatter (FSC) characteristics.
Data set [6] addresses T3, PI 3-kinase delta (Homo sapiens, UniProt O00329). The experiment in a line: TR-FRET Adapta assay, assay F. As to conditions: read-out: Assay F PI3Kδ IC50.
Target sequence in this assay (O00329 whole entry): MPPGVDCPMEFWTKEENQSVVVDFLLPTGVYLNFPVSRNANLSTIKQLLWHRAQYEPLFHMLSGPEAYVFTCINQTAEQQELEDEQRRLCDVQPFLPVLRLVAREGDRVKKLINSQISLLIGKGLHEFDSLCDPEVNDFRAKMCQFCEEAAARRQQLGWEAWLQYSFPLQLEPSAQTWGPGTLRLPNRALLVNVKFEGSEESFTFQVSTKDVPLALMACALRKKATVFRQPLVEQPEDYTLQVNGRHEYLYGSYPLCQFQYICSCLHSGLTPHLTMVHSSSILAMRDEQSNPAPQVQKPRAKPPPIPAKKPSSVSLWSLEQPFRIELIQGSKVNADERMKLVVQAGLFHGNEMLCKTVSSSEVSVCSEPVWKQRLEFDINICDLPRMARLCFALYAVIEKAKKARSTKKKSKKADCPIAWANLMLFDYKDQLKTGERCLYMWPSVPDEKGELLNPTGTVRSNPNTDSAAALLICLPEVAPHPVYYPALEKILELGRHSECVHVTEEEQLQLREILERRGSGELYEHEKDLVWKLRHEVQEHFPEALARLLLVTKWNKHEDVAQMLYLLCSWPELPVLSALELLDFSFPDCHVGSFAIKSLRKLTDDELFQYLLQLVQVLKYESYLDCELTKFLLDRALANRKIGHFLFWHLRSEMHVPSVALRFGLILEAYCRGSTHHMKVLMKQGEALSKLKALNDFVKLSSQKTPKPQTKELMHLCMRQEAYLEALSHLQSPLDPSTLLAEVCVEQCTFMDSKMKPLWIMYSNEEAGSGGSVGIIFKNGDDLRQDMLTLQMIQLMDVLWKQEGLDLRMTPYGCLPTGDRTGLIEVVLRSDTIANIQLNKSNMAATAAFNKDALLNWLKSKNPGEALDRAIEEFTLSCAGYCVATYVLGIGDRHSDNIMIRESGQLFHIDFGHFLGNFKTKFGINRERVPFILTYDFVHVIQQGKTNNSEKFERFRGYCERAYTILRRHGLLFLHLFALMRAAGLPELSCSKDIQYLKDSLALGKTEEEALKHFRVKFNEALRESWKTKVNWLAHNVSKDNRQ
Target sequence in this assay (P27986 461-568 partner): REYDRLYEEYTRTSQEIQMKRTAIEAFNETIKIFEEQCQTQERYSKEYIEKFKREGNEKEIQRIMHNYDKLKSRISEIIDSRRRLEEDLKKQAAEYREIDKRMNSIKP
The target of data set [7] is T1, PI 3-kinase beta. The experiment in a line: Kinase Glo Luminescent Kinase Assay (Kglo), assay B. The class given is biochemical. As to conditions: read-out: Assay B PI3Kβ IC50.
For data set [8], the target named is T3, PI 3-kinase delta. The data set is described as follows: Cellular assay J1, p-Akt (S473) in Rat-1 cells, Surefire format. The class given is cell-based. As to conditions: non-asterisked data: version J1 (Surefire format), Rat-1 cells; read-out: Assay J PI3Kδ IC50.
Target sequence in this assay (O00329 whole entry): as the sequence (O00329 whole entry) above
Target sequence in this assay (Q63787 whole entry partner): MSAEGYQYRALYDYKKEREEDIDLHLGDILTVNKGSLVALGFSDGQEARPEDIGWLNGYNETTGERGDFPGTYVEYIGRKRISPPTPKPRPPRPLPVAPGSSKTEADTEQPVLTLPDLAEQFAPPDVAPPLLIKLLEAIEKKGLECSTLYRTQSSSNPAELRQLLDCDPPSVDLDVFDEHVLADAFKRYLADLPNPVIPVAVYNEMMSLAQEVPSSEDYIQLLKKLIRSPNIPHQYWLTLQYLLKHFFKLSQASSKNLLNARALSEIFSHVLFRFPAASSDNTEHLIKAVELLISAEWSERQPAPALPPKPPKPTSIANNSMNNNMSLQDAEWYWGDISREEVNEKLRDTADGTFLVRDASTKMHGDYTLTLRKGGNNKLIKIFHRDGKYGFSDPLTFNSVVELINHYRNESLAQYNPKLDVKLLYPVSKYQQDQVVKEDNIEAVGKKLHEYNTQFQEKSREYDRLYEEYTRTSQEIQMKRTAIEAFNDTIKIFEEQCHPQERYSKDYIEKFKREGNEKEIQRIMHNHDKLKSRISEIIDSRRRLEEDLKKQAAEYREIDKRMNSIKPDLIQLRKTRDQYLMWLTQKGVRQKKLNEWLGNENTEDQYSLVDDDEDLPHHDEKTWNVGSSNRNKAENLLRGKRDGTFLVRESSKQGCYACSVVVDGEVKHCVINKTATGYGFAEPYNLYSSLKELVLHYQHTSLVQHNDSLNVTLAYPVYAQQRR
Data set [9] deals with T4, PI 3-kinase alpha (Homo sapiens, UniProt P42336). The experiment in a line: Cellular assay H1, p-Akt (S473) in Rat-1 cells, Surefire format. The class given is cell-based. The settings on record: non-asterisked data: version H1 (Surefire format), Rat-1 cells; read-out: Assay H PI3Kα IC50.
Target sequence in this assay (P42336 whole entry): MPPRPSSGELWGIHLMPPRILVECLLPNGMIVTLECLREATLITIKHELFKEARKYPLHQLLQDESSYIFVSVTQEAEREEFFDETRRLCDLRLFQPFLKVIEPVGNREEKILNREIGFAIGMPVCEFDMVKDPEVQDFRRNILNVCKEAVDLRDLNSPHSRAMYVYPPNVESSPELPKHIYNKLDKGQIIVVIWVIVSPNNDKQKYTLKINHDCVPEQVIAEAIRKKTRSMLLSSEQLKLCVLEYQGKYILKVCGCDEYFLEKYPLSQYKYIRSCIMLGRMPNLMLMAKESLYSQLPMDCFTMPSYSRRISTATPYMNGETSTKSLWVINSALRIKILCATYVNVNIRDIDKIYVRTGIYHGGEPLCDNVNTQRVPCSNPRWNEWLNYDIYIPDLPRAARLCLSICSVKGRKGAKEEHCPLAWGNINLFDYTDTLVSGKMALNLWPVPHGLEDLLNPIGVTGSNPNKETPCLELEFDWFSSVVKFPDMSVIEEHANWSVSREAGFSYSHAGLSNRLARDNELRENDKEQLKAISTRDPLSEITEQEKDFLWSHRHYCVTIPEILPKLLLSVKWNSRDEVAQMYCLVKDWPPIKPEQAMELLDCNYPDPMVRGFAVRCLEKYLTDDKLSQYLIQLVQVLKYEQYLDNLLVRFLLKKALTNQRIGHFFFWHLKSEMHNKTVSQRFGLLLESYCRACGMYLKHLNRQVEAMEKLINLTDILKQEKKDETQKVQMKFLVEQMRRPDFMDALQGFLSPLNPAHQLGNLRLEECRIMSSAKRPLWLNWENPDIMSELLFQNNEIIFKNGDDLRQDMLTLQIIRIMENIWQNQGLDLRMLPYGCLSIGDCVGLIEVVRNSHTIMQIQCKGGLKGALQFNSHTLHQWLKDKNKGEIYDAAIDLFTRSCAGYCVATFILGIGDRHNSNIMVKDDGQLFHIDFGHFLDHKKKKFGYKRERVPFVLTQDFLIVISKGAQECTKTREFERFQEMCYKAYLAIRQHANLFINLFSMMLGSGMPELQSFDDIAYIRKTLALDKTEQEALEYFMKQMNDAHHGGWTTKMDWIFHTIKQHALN
Target sequence in this assay (Q63787 whole entry partner): as the sequence (Q63787 whole entry partner) above
In data set [10] the target is T4, PI 3-kinase alpha. The data set is described as follows: Kinase Glo Luminescent Kinase Assay (Kglo), assay A. The settings on record: read-out: Assay A PI3Kα IC50. The class given is biochemical.
Target sequence in this assay (P42336 whole entry): as the sequence (P42336 whole entry) above
In a further data set the target is PI 4-kinase beta (Homo sapiens, UniProt Q9UBF8). The experiment in a line: Kinase Glo Luminescent Kinase Assay (Kglo), assay D. The class given is biochemical. The settings on record: read-out: Assay D PI4Kβ IC50.

Where a name gives a salt, the structure may show the parent alone. Read-outs that look alike come from different tables or passages of the source.

Usually IC50 stands for the concentration at which inhibition is half-maximal.

Sequence of PI 4-kinase beta (Q9UBF8 whole entry): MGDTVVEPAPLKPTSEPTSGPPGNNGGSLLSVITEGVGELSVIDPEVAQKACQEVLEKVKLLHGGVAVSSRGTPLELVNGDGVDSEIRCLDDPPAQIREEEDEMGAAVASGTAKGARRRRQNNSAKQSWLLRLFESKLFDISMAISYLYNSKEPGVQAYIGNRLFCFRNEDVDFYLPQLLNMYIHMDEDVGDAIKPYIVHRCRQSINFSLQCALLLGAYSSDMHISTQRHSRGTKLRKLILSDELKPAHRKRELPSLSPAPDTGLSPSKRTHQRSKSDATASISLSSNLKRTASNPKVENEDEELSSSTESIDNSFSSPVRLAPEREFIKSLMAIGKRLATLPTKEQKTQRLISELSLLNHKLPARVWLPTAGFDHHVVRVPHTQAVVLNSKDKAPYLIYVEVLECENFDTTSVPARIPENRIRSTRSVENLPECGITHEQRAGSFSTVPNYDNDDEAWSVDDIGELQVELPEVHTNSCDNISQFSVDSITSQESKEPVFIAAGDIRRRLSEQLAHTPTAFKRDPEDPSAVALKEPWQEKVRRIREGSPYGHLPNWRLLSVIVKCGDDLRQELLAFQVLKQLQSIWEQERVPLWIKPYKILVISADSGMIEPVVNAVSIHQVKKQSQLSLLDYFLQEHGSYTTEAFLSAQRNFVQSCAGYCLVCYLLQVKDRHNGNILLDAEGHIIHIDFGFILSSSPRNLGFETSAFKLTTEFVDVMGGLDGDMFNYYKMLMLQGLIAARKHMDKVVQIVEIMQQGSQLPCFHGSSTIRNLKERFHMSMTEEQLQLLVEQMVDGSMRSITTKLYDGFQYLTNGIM
T2 sequence (P48736 whole entry): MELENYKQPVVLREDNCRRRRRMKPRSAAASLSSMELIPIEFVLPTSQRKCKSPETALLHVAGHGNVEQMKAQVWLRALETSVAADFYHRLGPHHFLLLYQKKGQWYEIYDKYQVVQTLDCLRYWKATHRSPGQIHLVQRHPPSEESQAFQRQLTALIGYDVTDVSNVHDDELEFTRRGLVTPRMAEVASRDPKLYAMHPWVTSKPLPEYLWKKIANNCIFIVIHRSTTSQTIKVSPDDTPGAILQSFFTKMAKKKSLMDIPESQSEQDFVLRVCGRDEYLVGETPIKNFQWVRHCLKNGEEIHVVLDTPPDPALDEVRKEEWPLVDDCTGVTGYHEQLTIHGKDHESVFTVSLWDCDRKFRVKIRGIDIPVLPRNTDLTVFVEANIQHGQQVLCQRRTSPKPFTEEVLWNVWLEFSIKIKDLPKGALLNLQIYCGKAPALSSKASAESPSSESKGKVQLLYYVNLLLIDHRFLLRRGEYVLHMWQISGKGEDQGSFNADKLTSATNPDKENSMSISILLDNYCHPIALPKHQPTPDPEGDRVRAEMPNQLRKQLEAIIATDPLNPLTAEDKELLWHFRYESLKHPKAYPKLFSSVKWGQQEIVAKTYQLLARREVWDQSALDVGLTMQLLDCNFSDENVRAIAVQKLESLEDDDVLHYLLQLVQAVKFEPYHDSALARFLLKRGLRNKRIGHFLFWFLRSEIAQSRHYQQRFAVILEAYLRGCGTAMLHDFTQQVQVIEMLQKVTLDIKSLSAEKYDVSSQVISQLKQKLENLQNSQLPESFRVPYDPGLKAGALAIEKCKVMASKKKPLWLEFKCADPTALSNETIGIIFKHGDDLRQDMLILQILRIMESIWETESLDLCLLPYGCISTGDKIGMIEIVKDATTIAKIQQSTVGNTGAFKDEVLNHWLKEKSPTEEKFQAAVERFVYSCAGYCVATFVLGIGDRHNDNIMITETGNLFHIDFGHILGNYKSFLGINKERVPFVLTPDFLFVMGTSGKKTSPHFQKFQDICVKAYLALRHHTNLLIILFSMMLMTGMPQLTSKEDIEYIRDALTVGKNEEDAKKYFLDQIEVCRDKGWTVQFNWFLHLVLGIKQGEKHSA
Method for Vps34: Kinase Glo Luminescent Kinase Assay (Kglo) for Pb 3-Kinase Alpha (A), Pb 3-Kinase Beta (B), Vps34 (C), Pb 4-Kinase Beta (D)
The Kinase Glo Luminescent Kinase Assay (Promega, Madison/Wis., USA) is a homogeneous HTS method of measuring kinase activity by quantifying the amount of ATP remaining in solution following a kinase reaction.
L-α-phosphatidylinositol (PI), provided as 10 mg/ml solution in methanol, was transferred into a glass tube and dried under a nitrogen beam. It was then resuspended in 3% OctylGlucoside (1-0-n-octyl-beta-D-glucopyranoside) by vortexing and stored at 4° C. 5 μL of a mix of PI/OctylGlucoside with the PI 3-kinase alpha and PI 3-kinase beta subtypes, or Vps34 or PI 4-kinase beta were added. Kinase reactions were started by the addition of 5 μl of an ATP-mix containing in a final volume 10 μL 10 mM TRIS-HCl pH 7.5, 3 mM MgCl2, 50 mM NaCl, 0.05% CHAPS, 1 mM DTT and 1 μM ATP at room temperature.
All fits were performed with the program XLfit4 (ID Business Solutions, Guildford, UK).
Method for mTOR: Lanthascreen™ Kinase Binding Assay for mTOR (G)
Binding of an inhibitor to the kinase competes for binding with the tracer, resulting in a loss of FRET.
50 nL of compound dilutions were dispensed onto white 384-well small volume polystyrene plate.

For the compound `Cc1ccc(S(=O)(=O)NC2CC3(CC(O)C3)C2)cc1-c1cnc(N)c(-c2cn(C)nc2C)n1` (single isomer, unassigned) [Example 9a, (R)-3-[5-Amino-6-(1,3-dimethyl-1H-pyrazol-4-yl)-pyrazin-2-yl]-N-(6-hydroxy-spiro[3.3]hept-2-yl)-4-methyl-benzenesulfonamide or (S)-3-[5-Amino-6-(1,3-dimethyl-1H-pyrazol-4-yl)-pyrazin-2-yl]-N-(6-hydroxy-spiro[3.3]hept-2-yl)-4-methyl-benzenesulfonamide], the half-maximal inhibitory concentration (IC50) was more than 10000 nM at Vps34; 8100 nM at mTOR; more than 10000 nM on PI 3-kinase beta [2]; 15 nM at PI 3-kinase gamma [3]; 40 nM at PI 3-kinase gamma [4]; 327 nM in data set [5]. Also, the IC50 at PI 3-kinase delta [6] worked out at 200 nM; at PI 3-kinase beta [7] it was 540 nM; on PI 3-kinase delta [8], 3530 nM. Moreover, the “Assay M RLM CI(int)” value in [1] turned out to be 34 µL/min/mg.
For the compound `Cc1noc(-c2nc(-c3cc(S(=O)(=O)NCCC(C)(C)O)ccc3C)cnc2N)n1` [Example 3, 3-[5-Amino-6-(3-methyl-[1,2,4]oxadiazol-5-yl)-pyrazin-2-yl]-N-(3-hydroxy-3-methyl-butyl)-4-methyl-benzenesulfonamide], the IC50 is more than 9100 nM on Vps34; more than 9100 nM at mTOR; 1040 nM at PI 3-kinase alpha [9]; 600 nM on PI 3-kinase alpha [10]; more than 9100 nM at PI 4-kinase beta; 8330 nM on PI 3-kinase beta [2]. Moreover, the IC50 stood at 46 nM on PI 3-kinase gamma [3]; 394 nM at PI 3-kinase gamma [4]; 1110 nM in [5] (Homo sapiens, Neutrophil); 140 nM on PI 3-kinase delta [6]; 5880 nM at PI 3-kinase beta [7]; 1170 nM on PI 3-kinase delta [8].
Take `Cc1ccc(S(=O)(=O)NCCC(C)(C)O)cc1-c1cnc(N)c(-c2cn(C)nc2C)n1` [Example 12, 3-(5-Amino-6-(1,3-dimethyl-1H-pyrazol-4-yl)pyrazin-2-yl)-N-(3-hydroxy-3-methylbutyl)-4-methyl benzenesulfonamide]: the IC50 at Vps34 is more than 9100 nM; on mTOR it was more than 9100 nM; on PI 3-kinase alpha [9], 4700 nM; at PI 3-kinase alpha [10], 140 nM; on PI 4-kinase beta, more than 9100 nM; at PI 3-kinase beta [2], more than 10000 nM. Also, the IC50 on PI 3-kinase gamma [3] was 41 nM; at PI 3-kinase gamma [4], 117 nM; in [5] (Homo sapiens, Neutrophil), 200 nM; on PI 3-kinase delta [6], 240 nM; on PI 3-kinase beta [7] it was 2650 nM; at PI 3-kinase delta [8], 3410 nM.
For `Cc1ccc(S(=O)(=O)N[C@H]2CC[C@H](O)CC2)cc1-c1cnc(N)c(-c2nc(C(C)C)no2)n1` [Example 23, 3-[5-Amino-6-(3-isopropyl-[1,2,4]oxadiazol-5-yl)-pyrazin-2-yl]-N-(4-hydroxy-cyclohexyl)-4-methyl-benzene sulfonamide], the IC50 at Vps34 is more than 9100 nM; on mTOR, 6450 nM; at PI 3-kinase alpha [9] it was 3010 nM; on PI 3-kinase alpha [10], 390 nM; at PI 4-kinase beta it was more than 9100 nM; on PI 3-kinase beta [2], 6460 nM. Moreover, the IC50 at PI 3-kinase gamma [3] is 10 nM; at PI 3-kinase gamma [4], 106 nM; in data set [5] (Homo sapiens, Neutrophil) it was 447 nM; at PI 3-kinase delta [6], 90 nM; at PI 3-kinase beta [7], more than 9100 nM; at PI 3-kinase delta [8], 1010 nM.
For the compound `Cc1ccc(S(=O)(=O)N[C@H]2CC[C@H](O)CC2)cc1-c1cnc(N)c(-c2cnn(C)c2)n1` [Example 58, Trans-3-(5-Amino-6-(1-methyl-1H-pyrazol-4-yl)pyrazin-2-yl)-N-(-4-hydroxycyclohexyl)-4-methylbenzenesulfonamide], the IC50 on Vps34 is 3100 nM; at mTOR, more than 9100 nM; on PI 3-kinase alpha [9] it was 8580 nM; at PI 3-kinase alpha [10], 490 nM; at PI 4-kinase beta it was 5850 nM; at PI 3-kinase gamma [3], 19 nM. The IC50 at PI 3-kinase gamma [4] came out at 73 nM; in [5] (Homo sapiens, Neutrophil), 385 nM; on PI 3-kinase delta [6], 100 nM; on PI 3-kinase beta [7], 2930 nM; at PI 3-kinase delta [8] it was 2460 nM. The “Assay M RLM CI(int)” value in data set [1] was 14 µL/min/mg.
In the case of `Cc1ccc(S(=O)(=O)NCCC(C)(C)O)cc1-c1cnc(N)c(-n2cccn2)n1` [Example 62, 3-(5-Amino-6-(1H-pyrazol-1-yl)pyrazin-2-yl)-N-(3-hydroxy-3-methylbutyl)-4-methylbenzenesulfonamide], the IC50 on Vps34 is more than 9100 nM; at mTOR, more than 9100 nM; on PI 3-kinase alpha [9] it was 1440 nM; on PI 3-kinase alpha [10] it was 680 nM; at PI 4-kinase beta, 3680 nM; at PI 3-kinase gamma [3], 56 nM. In addition, the IC50 on PI 3-kinase gamma [4] worked out at 110 nM; in data set [5] (Homo sapiens, Neutrophil), 7910 nM; at PI 3-kinase delta [6], 210 nM; on PI 3-kinase beta [7], 1010 nM; at PI 3-kinase delta [8] it was 970 nM. In addition, the “Assay M RLM CI(int)” value in data set [1] is 155 µL/min/mg.
Take `Cc1cn(-c2nc(-c3cc(S(=O)(=O)NCCC(C)(C)O)ccc3C)cnc2N)cn1` [Example 63, 3-(5-Amino-6-(4-methyl-1H-imidazol-1-yl)pyrazin-2-yl)-N-(3-hydroxy-3-methylbutyl)-4-methylbenzenesulfonamide]: the IC50 was more than 9100 nM at Vps34; 6500 nM at mTOR; 2970 nM on PI 3-kinase alpha [9]; 330 nM on PI 3-kinase alpha [10]; 7850 nM on PI 4-kinase beta; 68 nM on PI 3-kinase gamma [3]. In addition, the half-inhibitory concentration (IC50) at PI 3-kinase gamma [4] is 163 nM; in data set [5] (Homo sapiens, Neutrophil), 626 nM; on PI 3-kinase delta [6], 420 nM; on PI 3-kinase beta [7], 3930 nM; at PI 3-kinase delta [8], 3250 nM. For the same compound, the “Assay M RLM CI(int)” value in [1] turned out to be 44 µL/min/mg.
On to `Cc1ccc(S(=O)(=O)N[C@H]2CC[C@@H](O)CC2)cc1-c1cnc(N)c(-c2cnn(C)c2)n1` [Example 75, 3-(5-Amino-6-(1-methyl-1H-pyrazol-4-yl)pyrazin-2-yl)-N-((1s,4s)-4-hydroxycyclohexyl)-4-methylbenzenesulfonamide], for which the IC50 at Vps34 is 7490 nM; on mTOR, 4510 nM; at PI 3-kinase alpha [9], more than 10000 nM; at PI 3-kinase alpha [10] it was 470 nM; on PI 4-kinase beta, 7970 nM; at PI 3-kinase gamma [3] it was 56 nM. Further, the IC50 at PI 3-kinase gamma [4] was found to be 91 nM; in [5] (Homo sapiens, Neutrophil), 830 nM; at PI 3-kinase delta [6], 240 nM; at PI 3-kinase beta [7] it was 2480 nM; at PI 3-kinase delta [8], 7800 nM. The “Assay M RLM CI(int)” value in data set [1] was 13 µL/min/mg.
Take `CCCn1cc(-c2nc(-c3cc(S(=O)(=O)NCCC(C)(C)O)ccc3C)cnc2N)cn1` [Example 119.25]: the IC50 was more than 9100 nM at Vps34; 8740 nM at mTOR; 1280 nM at PI 3-kinase alpha [9]; 400 nM at PI 3-kinase alpha [10]; 4050 nM on PI 4-kinase beta; 4100 nM on PI 3-kinase beta [2]. Moreover, the IC50 on PI 3-kinase gamma [3] is 31 nM; at PI 3-kinase gamma [4], 65 nM; in [5] (Homo sapiens, Neutrophil), 2090 nM; at PI 3-kinase delta [6] it was 290 nM; on PI 3-kinase beta [7], 5780 nM; on PI 3-kinase delta [8], 1200 nM.
With `Cc1ccc(-c2nc(-c3cc(S(=O)(=O)NCCC(C)(C)O)ccc3C)cnc2N)s1` [Example 119.44], the IC50 was more than 9100 nM on Vps34; 3990 nM at mTOR; 120 nM at PI 3-kinase alpha [10]; 760 nM at PI 4-kinase beta; 99 nM at PI 3-kinase gamma [3]; 42 nM at PI 3-kinase gamma [4]. The IC50 was found to be 7080 nM in [5] (Homo sapiens, Neutrophil); 40 nM on PI 3-kinase delta [6]; 1370 nM on PI 3-kinase beta [7]. In addition, the “Assay M RLM CI(int)” value in data set [1] amounted to 137 µL/min/mg.
Take `Cc1ccc(S(=O)(=O)NCCC(C)(C)O)cc1-c1cnc(N)c(-c2cnn(Cc3ccccc3)c2)n1` [Example 132, 3-(5-Amino-6-(1-benzyl-1H-pyrazol-4-yl)pyrazin-2-yl)-N-(3-hydroxy-3-methylbutyl)-4-methylbenzenesulfonamide hydrochloride]: the IC50 on Vps34 is more than 9100 nM; at mTOR, more than 9100 nM; at PI 3-kinase alpha [9], 1280 nM; at PI 3-kinase alpha [10] it was 180 nM; on PI 4-kinase beta it was 2260 nM; on PI 3-kinase beta [2] it was 6050 nM. Further, the IC50 is 17 nM on PI 3-kinase gamma [3]; 74 nM at PI 3-kinase gamma [4]; 449 nM in data set [5] (Homo sapiens, Neutrophil); 50 nM at PI 3-kinase delta [6]; more than 9100 nM at PI 3-kinase beta [7]; 350 nM at PI 3-kinase delta [8].
